Data from patent US20150283240A1, “STABILIZED COMPOSITIONS COMPRISING A […] ACTIVE AGENT AND AN OXIDIZING PRESERVATIVE” (Allergan, Inc., priority 2014, published 2015).

What was measured:
[1] = for Stabilization of chlorine dioxide (in words): excipients of Table 1 in brimonidine composition; for Stabilized Chlorine Dioxide Concentration, 0 Days / Stabilized Chlorine Dioxide Concentration, 7 Days / Stabilized Chlorine Dioxide Concentration, 14 Days: ingredient added at stated ppm to proprietary brimonidine composition
Description: Each of the excipients was added, in the amounts shown, to a proprietary composition comprising brimonidine as a therapeutically active agent.

[2] = Effect of citrate on bimatoprost and Purite stability in the composition of Table 4 at 50° C.; assay type: physicochemical; conditions: compositions D (citric acid 0.014%) vs E, 50° C., 3, 6 and 10 weeks, FIGS. 1 and 2
Description: Compositions D and E were prepared according to Table 4 by a procedure similar to that described in Example 2. […] The samples were stored at 50° C. and the concentrations of bimatoprost (FIG. 1) and Purite® (FIG. 2) were determined at 3, 6 and 10 weeks.

[3] = assay type: physicochemical
Description: A composition, prepared according to Table 5, was entirely manufactured in a single batch vessel and was prepared as follows. The ingredients are added into purified water with mixing in the following order: sodium phosphate dibasic heptahydrate, citric acid monohydrate, sodium chloride, bimatoprost, and Purite®. Each ingredient was allowed to dissolve completely before the next ingredient was added. The pH was then measured and adjusted to 7.3, and purified water was added to bring the composition to final volume.

| SMILES | Stabilization of chlorine dioxide (in words) [1] | Stabilized Chlorine Dioxide Concentration, 0 Days [1] [ppm] | Stabilized Chlorine Dioxide Concentration, 7 Days [1] [ppm] | Stabilized Chlorine Dioxide Concentration, 14 Days [1] [ppm] | Effect of citrate on bimatoprost and Purite stability (in words) [2] | Storage stability for bimatoprost and Purite (in words) [3] |
| --- | --- | --- | --- | --- | --- | --- |
| O=C(O)CN(CCN(CC(=O)O)CC(=O)O)CC(=O)O [EDTA] | do not stabilize | 44 | 2 | 0 |  |  |
| NCCN [Ethylene diamine] | do not stabilize |  |  |  |  |  |
| O=C([O-])/C(O)=C(\O)C(=O)[O-].[Na+].[Na+] [Sodium Dihydroxyfurmarate] |  | 37 | 13 | 0 |  |  |
| O=C[O-].[Na+] [Sodium Formate] |  | 42 | 40 | 36 |  |  |
| CC(O)C(=O)[O-].[Na+] (stereo not drawn) [Sodium Lactate] |  | 45 | 40 | 37 |  |  |
| O=C([O-])C(=O)[O-].[Na+].[Na+] [Sodium Oxalate] | ineffective | 39 | 38 | 35 |  |  |
| CC(=O)C(=O)[O-].[Na+] [Sodium Pyruvate] | ineffective |  |  |  |  |  |
| O=C(O)CC(O)(CC(=O)O)C(=O)O [citrate, citric acid] |  |  |  |  | stabilizes both bimatoprost and Purite® | excellent storage stability |
